# Experimental data from PubChem BioAssay AID1963960 (Molecular Pharmacology Branch, DTP, NCI, 2024).
# pIC50: −log10 of the molar value.
# Test system: MDA-MB-468 spheroids with HUVEC/MSC, viability
# Assay: Anticancer human tumor MDA-MB-468 cell line growth inhibition [PI3K];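 also: spheroids exposed to agents for seven days before readout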;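 as to viability, T/C: 100% = DMSO vehicle control viability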
# Conditions: for pIC50: curve of first compound; for viability, T/C: stronger effect = lower value
# Outline: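 Tumor cells grown as multi-cell spheroids with HUVEC endothelial cells and MSC fibroblast-like stroma were treated with targeted agents combined with inavolisib, alpelisib, duvelisib or copanlisib. Doses fell in half-log steps from near clinical Cmax, else from 10 microM. Viability was measured.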
# [1] = second compound 0.0316 µM, first compound 0.0316 µM
# [2] = second compound 0.0316 µM, first compound 0.1 µM
# [3] = second compound 0.0316 µM, first compound 0.316 µM
# [4] = second compound 0.0316 µM, first compound 1 µM
# [5] = second compound 0.1 µM, first compound 0.0316 µM
# [6] = second compound 0.1 µM, first compound 0.1 µM
# [7] = second compound 0.1 µM, first compound 0.316 µM
# [8] = second compound 0.1 µM, first compound 1 µM
# [9] = second compound 0.316 µM, first compound 0.0316 µM
# [10] = second compound 0.316 µM, first compound 0.1 µM
# [11] = second compound 0.316 µM, first compound 0.316 µM
# [12] = second compound 0.316 µM, first compound 1 µM
# [13] = second compound 1 µM, first compound 0.0316 µM
# [14] = second compound 1 µM, first compound 0.1 µM
# [15] = second compound 1 µM, first compound 0.316 µM
# [16] = second compound 1 µM, first compound 1 µM
# [17] = second compound 3.16 µM, first compound 0.0316 µM
# [18] = second compound 3.16 µM, first compound 0.1 µM
# [19] = second compound 3.16 µM, first compound 0.316 µM
# [20] = second compound 3.16 µM, first compound 1 µM
# [21] = second compound 10 µM, first compound 0.0316 µM
# [22] = second compound 10 µM, first compound 0.1 µM
# [23] = second compound 10 µM, first compound 0.316 µM
# [24] = second compound 10 µM, first compound 1 µM
compound,measurement,setting,value
CC(C)NCC(C(=O)N1CCN(c2ncnc3c2C(C)CC3O)CC1)c1ccc(Cl)cc1 (centres undefined) + CC(Nc1ncnc2nc[nH]c12)c1cc2cccc(Cl)c2c(=O)n1-c1ccccc1,pIC50,second compound 0.0316 µM,5.93
same,pIC50,second compound 0.1 µM,6.00
same,pIC50,second compound 0.316 µM,5.91
same,pIC50,second compound 1 µM,6.18
same,pIC50,second compound 3.16 µM,6.59
same,pIC50,second compound 10 µM,> 7.50
same,"viability, T/C",[1],97.6%
same,"viability, T/C",[2],86.2%
same,"viability, T/C",[3],76.4%
same,"viability, T/C",[4],50.4%
same,"viability, T/C","second compound 0.0316 µM, first compound 3.16 µM",36%
same,"viability, T/C","second compound 0.0316 µM, first compound 10 µM",25.7%
same,"viability, T/C",[5],78.1%
same,"viability, T/C",[6],87.9%
same,"viability, T/C",[7],77.5%
same,"viability, T/C",[8],48.3%
same,"viability, T/C","second compound 0.1 µM, first compound 3.16 µM",38.5%
same,"viability, T/C","second compound 0.1 µM, first compound 10 µM",25.8%
same,"viability, T/C",[9],73.1%
same,"viability, T/C",[10],80.2%
same,"viability, T/C",[11],76.9%
same,"viability, T/C",[12],51.2%
same,"viability, T/C","second compound 0.316 µM, first compound 3.16 µM",38.5%
same,"viability, T/C","second compound 0.316 µM, first compound 10 µM",27.4%
same,"viability, T/C",[13],72.2%
same,"viability, T/C",[14],64.9%
same,"viability, T/C",[15],59.1%
same,"viability, T/C",[16],46.4%
same,"viability, T/C","second compound 1 µM, first compound 3.16 µM",29.9%
same,"viability, T/C","second compound 1 µM, first compound 10 µM",27%
same,"viability, T/C",[17],57.5%
same,"viability, T/C",[18],57.7%
same,"viability, T/C",[19],47%
same,"viability, T/C",[20],40.8%
same,"viability, T/C","second compound 3.16 µM, first compound 3.16 µM",32.6%
same,"viability, T/C","second compound 3.16 µM, first compound 10 µM",25.6%
same,"viability, T/C",[21],46.4%
same,"viability, T/C",[22],41.2%
same,"viability, T/C",[23],42.2%
same,"viability, T/C",[24],34.7%
same,"viability, T/C","second compound 10 µM, first compound 3.16 µM",26.4%
same,"viability, T/C","second compound 10 µM, first compound 10 µM",21.4%
CCN1CCN(Cc2ccc(Nc3ncc(F)c(-c4cc(F)c5nc(C)n(C(C)C)c5c4)n3)nc2)CC1 + CC(Nc1ncnc2nc[nH]c12)c1cc2cccc(Cl)c2c(=O)n1-c1ccccc1,pIC50,second compound 0.0316 µM,< 6.00
same,pIC50,second compound 0.1 µM,< 6.00
same,pIC50,second compound 0.316 µM,< 6.00
same,pIC50,second compound 1 µM,< 6.00
same,pIC50,second compound 3.16 µM,< 6.00
same,pIC50,second compound 10 µM,> 8.50
same,"viability, T/C","second compound 0.0316 µM, first compound 0.00316 µM",98.7%
same,"viability, T/C","second compound 0.0316 µM, first compound 0.01 µM",89.8%
same,"viability, T/C",[1],88.1%
same,"viability, T/C",[2],88.1%
same,"viability, T/C",[3],85.3%
same,"viability, T/C",[4],67.9%
same,"viability, T/C","second compound 0.1 µM, first compound 0.00316 µM",85.3%
same,"viability, T/C","second compound 0.1 µM, first compound 0.01 µM",92.7%
same,"viability, T/C",[5],94.1%
same,"viability, T/C",[6],93.7%
same,"viability, T/C",[7],79.3%
same,"viability, T/C",[8],60.1%
same,"viability, T/C","second compound 0.316 µM, first compound 0.00316 µM",78.3%
same,"viability, T/C","second compound 0.316 µM, first compound 0.01 µM",81.1%
same,"viability, T/C",[9],82.3%
same,"viability, T/C",[10],65.5%
same,"viability, T/C",[11],81%
same,"viability, T/C",[12],56.6%
same,"viability, T/C","second compound 1 µM, first compound 0.00316 µM",58.2%
same,"viability, T/C","second compound 1 µM, first compound 0.01 µM",70%
same,"viability, T/C",[13],69.5%
same,"viability, T/C",[14],61.7%
same,"viability, T/C",[15],56.9%
same,"viability, T/C",[16],51.5%
same,"viability, T/C","second compound 3.16 µM, first compound 0.00316 µM",60.9%
same,"viability, T/C","second compound 3.16 µM, first compound 0.01 µM",57.4%
same,"viability, T/C",[17],57.9%
same,"viability, T/C",[18],53.7%
same,"viability, T/C",[19],55.1%
same,"viability, T/C",[20],48.1%
same,"viability, T/C","second compound 10 µM, first compound 0.00316 µM",40.9%
same,"viability, T/C","second compound 10 µM, first compound 0.01 µM",42.4%
same,"viability, T/C",[21],41%
same,"viability, T/C",[22],40%
same,"viability, T/C",[23],37.8%
same,"viability, T/C",[24],31.8%
